Reference: patent publication EP4692072A1, “PHOTOCHROMIC COMPOUND, PROPARGYL ALCOHOL COMPOUND, CURABLE COMPOSITION, OPTICAL ARTICLE, LENS, AND SPECTACLES” (TOKUYAMA CORPORATION, priority 2023, dated 2024)

How the values were obtained:
[1] = Photochromic properties of photochromic laminate (plastic lens) prepared by coating method; type: physicochemical; details: 40 µm photochromic layer on thiourethane lens, 0.25 mmol compound per 100 g monomers, after color development
Text: First, the photochromic compound obtained in Example 1, a photoinitiator, and a polymerizable compound were mixed to obtain a curable composition.
Polyethylene glycol dimethacrylate (average molecular weight: 736): 42 parts by mass • Polyethylene glycol dimethacrylate (average molecular weight: 536): 12 parts by mass • Trimethylolpropane trimethacrylate: 38 parts by mass γ-methacryloyloxypropyl trimethoxysilane: 2 parts by mass Glycidyl methacrylate: 1 part by mass
Note that the photochromic compound was added to the curable composition so that the amount of the photochromic compound was 0.25 mmol based on 100 g of the total amount of the radical-polymerizable monomers.
Phenylbis(2,4,6-trimethylbenzoyl)phosphine oxide (photoinitiator: Omnirad 819): 0.3 parts by mass Ethylene bis(oxyethylene) bis[3-(5-tert-butyl-4-hydroxy-m-tolyl)propionate] (stabilizer, Irganox 245): 1 part by mass Bis(1,2,2,6,6-pentamethyl-4-piperidyl) sebacate: 3 parts by mass Leveling agent (L7001) manufactured by Dow Corning Toray Co.,Ltd.: 0.1 part by mass
First, a thiourethane-based plastic lens having a central thickness of 2 mm and a refractive index of 1.60 was prepared as the optical substrate. Note that this thiourethane-based plastic lens was pre-treated by alkaline etching with a 10% sodium hydroxide aqueous solution at 50°C for 5 minutes, followed by sufficient washing with distilled water.
A surface of the above-described plastic lens was coated with a moisture-curable primer (product name: TR-SC-P, manufactured by Tokuyama Corporation) at a rotation frequency of 70 rpm for 15 seconds, followed by 1000 rpm for 10 seconds, using a spin coater (1H-DX2, manufactured by MIKASA CO., LTD), Subsequently, about 2 g of the photochromic curable composition obtained above was spin-coated at a rotation frequency of 60 rpm for 40 seconds, followed by 600 rpm for 10 to 20 seconds, to form a photochromic coating layer with a film thickness of 40 µm.
The lens with the surface coated with the photochromic curable composition (photochromic coating layer) was irradiated with light using a metal halide lamp with an output power of 200 mW/cm^2 in a nitrogen gas atmosphere for 90 seconds to cure the coating film. Subsequently, the lens was further heated at 110°C for 1 hour to prepare a photochromic laminate having a photochromic layer.
In the same manner as in Example 26, photochromic laminates were prepared using the photochromic compounds obtained in Examples 2 to 25.
• [1] Maximum Absorption Wavelength (λmax): The maximum absorption wavelength after color development, measured using a spectrophotometer (instantaneous multichannel photodetector MCPD3000) manufactured by Otsuka Electronics Co., Ltd. was used as an indicator for the color tone during the color development. • [2] 23°C Color Optical Density (A23): A difference between an absorbancy measured after light irradiation at 23°C for 300 seconds {ε(300)} and an absorbancy without light irradiation ε(0) at the maximum absorption wavelength was used as an indicator for the color optical density. […] 23°C color fading half-life [τ1/2 (sec.)]: A time required for the absorbancy of the sample at the maximum absorption wavelength to decrease to 1/2 of {ε(300)-ε(0)} when the light irradiation was terminated after the light irradiation at 23°C for 300 seconds, was used as an indicator for the color fading speed. The shorter this time, the higher the color fading speed. • [4] Residual rate (A120/A0×100): The obtained photochromic plastic lens was subjected to accelerated deterioration using a xenon weather meter X25 manufactured by Suga Test Instruments Co., Ltd. for 120 hours. Subsequently, the color optical density was evaluated before and after the test, then a color optical density before the test (A0) and a color optical density after the test (A120) were measured, and a ratio (A120/A0) was defined as a residual rate. The residual rate was used as an indicator for a color developing durability. […]

[2] = Accelerated deterioration (xenon weather meter X25, 120 hours) of photochromic cured product prepared by kneading method; type: physicochemical; details: 1 mm cured product, 0.106 mmol per 100 g monomer, A120/A0×100 after 120 hours xenon weather meter
Procedure: • [1] Maximum Absorption Wavelength (λmax): The maximum absorption wavelength after color development, measured using a spectrophotometer (instantaneous multichannel photodetector MCPD3000) manufactured by Otsuka Electronics Co., Ltd. was used as an indicator for the color tone during the color development. • [2] 23°C Color Optical Density (A23): A difference between an absorbancy measured after light irradiation at 23°C for 300 seconds {ε(300)} and an absorbancy without light irradiation ε(0) at the maximum absorption wavelength was used as an indicator for the color optical density. […] 23°C color fading half-life [τ1/2 (sec.)]: A time required for the absorbancy of the sample at the maximum absorption wavelength to decrease to 1/2 of {ε(300)-ε(0)} when the light irradiation was terminated after the light irradiation at 23°C for 300 seconds, was used as an indicator for the color fading speed. The shorter this time, the higher the color fading speed. • [4] Residual rate (A120/A0×100): The obtained photochromic plastic lens was subjected to accelerated deterioration using a xenon weather meter X25 manufactured by Suga Test Instruments Co., Ltd. for 120 hours. Subsequently, the color optical density was evaluated before and after the test, then a color optical density before the test (A0) and a color optical density after the test (A120) were measured, and a ratio (A120/A0) was defined as a residual rate. The residual rate was used as an indicator for a color developing durability. The higher the residual rate, the higher the color developing durability. The results of Examples 26, 50, and Comparative Examples 1 to 8 are summarized in Table 1, and the results of Examples 27 to 49 are summarized in Tables 2 and 3.
First, the photochromic compound obtained in Example 1, additives, and a polymerizable compound were mixed to obtain a curable composition.
As the polymerizable compound, a combination of the following polymerizable monomers was used. • 1,3-bis(isocyanatomethyl)cyclohexane: 36.7 parts by mass Pentaerythritol tetrakis(3-mercaptopropionate): 39.4 parts by mass • Polyoxyethylene polyoxypropylene lauryl ether (Wonder Surf 140 manufactured by Aoki Oil Industrial Co., Ltd.): 17.4 parts by mass • 1-decanethiol: 2.8 parts by mass • RX-1 adjusted according to the method described in Patent Document 13: 3.8 parts by mass
Note that the photochromic compound was added to the curable composition so that the amount of the photochromic compound was 0.106 mmol based on 100 g of the total amount of the polymerizable monomer. The following additives were used: Dimethyltin dichloride • : 0.05 part by mass • Irganox 245: 0.1 part by mass • 2-ethylhexyl 4-methoxycinnamate: 0.6 part by mass
The prepared curable composition was thoroughly defoamed, then injected into a glass mold having a 1 mm gap, and polymerized by cast polymerization. The polymerization was carried out in an air furnace while gradually raising the temperature from 27°C to 120°C over 18 hours. After the polymerization, the cured product was removed from the glass mold to obtain a photochromic cured product having a thickness of 1 mm. The obtained photochromic cured product was evaluated in the same manner as in Example 26.
(Examples 85 to 99, and Comparative Example 14 to 18) Photochromic cured products were prepared using photochromic compounds presented in Tables 6 and 7 in the same manner as in Example 84. The results of Examples 84 and 85 and Comparative Examples 14 to 18 are summarized in Table 6, and the results of Examples 86 to 99 are summarized in Table 7.

Maximum absorption wavelength [1] [nm] | Residual rate [2] [%] | SMILES | other results
502 | 72 | COc1ccc(C2(c3ccc(N(C)c4ccccc4)cc3)C=Cc3c4c(c5cc(-c6ccc(N7CCOCC7)cc6)c(OC)cc5c3O2)-c2ccccc2C4(C)C)cc1 (stereo not shown) [Example 1] | Maximum absorption wavelength ([1]; listed as Formula (37)): 601 nm
470 | 61 | CCCC1(CCC)c2cc(OC)ccc2-c2c1c1c(c3cc(OC)ccc23)OC(c2ccc(OC)cc2)(c2ccc(N(C)c3ccccc3)cc2)C=C1 (stereo not shown) [Example 3] | Maximum absorption wavelength ([1]; listed as Formula (46)): 612 nm
509 | 75 | CCCc1ccc(C2(c3ccc(N(C)c4ccccc4)cc3)C=Cc3c4c(c5cc(Sc6c(C)cccc6C)c(OC)cc5c3O2)-c2ccccc2C42CC(C)(C)CC(C)(C)C2)cc1 (stereo not shown) [Example 5] | Maximum absorption wavelength ([1]; listed as Formula (51)): 591 nm
496 | 68 | CCCC1(CCC)c2ccccc2-c2c1c1c(c3cc(OC)c(-c4ccc(OC)cc4OC)cc23)OC(c2ccc(N(C)c3ccccc3)cc2)(c2ccc(OC)c(F)c2)C=C1 (stereo not shown) [Example 7] | Maximum absorption wavelength ([1]; listed as Formula (55)): 603 nm
474 | 68 | COCCOCCC1(CCOCCOC)c2cc(C)ccc2-c2c1c1c(c3cc(C)ccc23)OC(c2ccc(N(C)c3ccc(F)cc3)cc2)(c2ccc(OC)c(OC)c2)C=C1 (stereo not shown) [Example 8] | Maximum absorption wavelength ([1]; listed as Formula (57)): 597 nm
512 | 68 | CCCCN(c1ccccc1)c1ccc(C2(c3ccc(C)cc3)C=Cc3c4c(c5cc(N6CCOCC6)c(OC)cc5c3O2)-c2ccccc2C4(CC)CC)cc1 (stereo not shown) [Example 10] | Maximum absorption wavelength ([1]; listed as Formula (62)): 598 nm; Residual rate ([2]; listed as Formula (62)): 70%
477 | – | COCCCCC1(CCCCOC)c2cc(Sc3c(C)cccc3C)ccc2-c2c1c1c(c3cc(OC)ccc23)OC(c2ccc(OC)cc2)(c2ccc(N(C)c3ccc(OC)cc3)cc2)C=C1 (stereo not shown) [Example 11] | Maximum absorption wavelength ([1]; listed as Formula (65)): 614 nm
492 | 71 | COCCN(c1ccccc1)c1ccc(C2(c3ccc4c(c3)OCCO4)C=Cc3c4c(c5cc6c(cc5c3O2)SC(C)(C)O6)-c2ccccc2C42CCC3(CCCCC3)CC2)cc1 (stereo not shown) [Example 14] | Maximum absorption wavelength ([1]; listed as Formula (72)): 586 nm; Residual rate ([2]; listed as Formula (71)): 70%
472 | 64 | CCC1(CC)CCC2(CC1)c1cc(OC(F)(F)F)ccc1-c1c2c2c(c3cc(OC)ccc13)OC(c1ccc(N(C)c3ccccc3)cc1)(c1ccc(OC)c(C)c1)C=C2 (stereo not shown) [Example 16] | Maximum absorption wavelength ([1]; listed as Formula (77)): 584 nm
494 | 73 | CCCC1(CCC)c2ccccc2-c2c1c1c(c3cc(OC)c(-c4ccc(OC)cc4OC)cc23)OC(c2ccc(C)cc2)(c2ccc(N(C)c3ccccc3)cc2)C=C1 (stereo not shown) [Example 19] | Maximum absorption wavelength ([1]; listed as Formula (80)): 604 nm
489 | 68 | CCCCC1(CCCC)c2cc(-c3ccc(OC(C)C)cc3)ccc2-c2c1c1c(c3cc(OC)ccc23)OC(c2ccc(N(C)c3ccccc3)cc2)(c2ccc(OC)c(F)c2)C=C1 (stereo not shown) [Example 21] | Maximum absorption wavelength ([1]; listed as Formula (83)): 609 nm
506 | – | COCCC1(CCOC)c2ccccc2-c2c1c1c(c3cc(OC)c(-c4ccc(N(c5ccccc5)c5ccccc5)cc4)cc23)OC(c2ccc(Oc3ccccc3)cc2)(c2ccc(N(C)c3ccccc3)cc2)C=C1 (stereo not shown) [Example 23] | Maximum absorption wavelength ([1]; listed as Formula (85)): 609 nm
500 | – | CCCCOCCC1(CCOCCCC)c2ccccc2-c2c1c1c(c3cc(OC)c(NC(=O)c4ccccc4)cc23)OC(c2ccc(N(C)c3ccccc3)cc2)(c2ccc(OC)c(F)c2)C=C1 (stereo not shown) [Example 53] | Maximum absorption wavelength ([1]; listed as Formula (95)): 605 nm

SMILES | Maximum absorption wavelength [1] [nm] | Residual rate [2] [%] | other results
COc1ccc(N(C)c2ccc(C3(c4ccc(CCO[Si](C)(C)CC[Si](O[Si](C)(C)C)(O[Si](C)(C)C)O[Si](C)(C)C)cc4)C=Cc4c5c(c6cc(N(C)c7ccccc7)c(OC)cc6c4O3)-c3ccc(C(F)(F)F)cc3C53CCC(C)(C)CC3)cc2)cc1 (stereo not shown) [Example 60] | 523 | – | Maximum absorption wavelength ([1]; listed as Formula (121)): 582 nm
